Consider 5 compounds from PubChem BioAssay AID1259407 (Chemical Carcinogenesis Research Information System (CCRIS), 2018).

The data set relates to CCRIS mutagenicity, Ames/micronucleus/aberration tests. The experiment in a line: CCRIS mutagenicity studies.
The mark [1] stands for this setting: Test System: AMES SALMONELLA TYPHIMURIUM, Strain/Indicator: TA98, Metabolic Activation: NONE, Method: STANDARD PLATE.
The mark [2] stands for this setting: Test System: AMES SALMONELLA TYPHIMURIUM, Strain/Indicator: TA98, Metabolic Activation: RAT, LIVER, S-9, AROCLOR 1254, Method: STANDARD PLATE.
Where [3] appears, read: Test System: AMES SALMONELLA TYPHIMURIUM, Strain/Indicator: TA100, Metabolic Activation: NONE, Method: STANDARD PLATE.
Setting [4] is: Test System: AMES SALMONELLA TYPHIMURIUM, Strain/Indicator: TA100, Metabolic Activation: RAT, LIVER, S-9, AROCLOR 1254, Method: STANDARD PLATE.
[5] abbreviates: Test System: AMES SALMONELLA TYPHIMURIUM, Strain/Indicator: TA1535, Metabolic Activation: NONE, Method: STANDARD PLATE.
Setting [6] is: Test System: AMES SALMONELLA TYPHIMURIUM, Strain/Indicator: TA1535, Metabolic Activation: RAT, LIVER, S-9, AROCLOR 1254, Method: STANDARD PLATE.
Where [7] appears, read: Test System: AMES SALMONELLA TYPHIMURIUM, Strain/Indicator: TA1537, Metabolic Activation: NONE, Method: STANDARD PLATE.
Where [8] appears, read: Test System: AMES SALMONELLA TYPHIMURIUM, Strain/Indicator: TA1537, Metabolic Activation: RAT, LIVER, S-9, AROCLOR 1254, Method: STANDARD PLATE.
[9] abbreviates: Test System: AMES SALMONELLA TYPHIMURIUM, Strain/Indicator: TA1538, Metabolic Activation: NONE, Method: STANDARD PLATE.
[10] abbreviates: Test System: AMES SALMONELLA TYPHIMURIUM, Strain/Indicator: TA1538, Metabolic Activation: RAT, LIVER, S-9, AROCLOR 1254, Method: STANDARD PLATE.
Where [11] appears, read: Test System: MOUSE LYMPHOMA, Strain/Indicator: L5178Y (TK+/TK-), Metabolic Activation: NONE, Method: SUSPENSION/PLATE.
[12] abbreviates: Test System: MOUSE LYMPHOMA, Strain/Indicator: L5178Y (TK+/TK-), Metabolic Activation: RAT, LIVER, S-9, AROCLOR 1254, Method: SUSPENSION/PLATE.

The source made the active and inactive calls. The rule behind the calls is not given here.

For the compound `CC(=O)OC(C)CN(CC(C)OC(C)=O)N=O` (configuration not stated), the mutagenic call is “active; positive” (Test System: AMES SALMONELLA TYPHIMURIUM, Strain/Indicator: TA100, Metabolic Activation: HAMSTER, LIVER, S-9, 3-METHYLCHOLANTHRENE, Method: PREINCUBATION); “active; positive” (Test System: AMES SALMONELLA TYPHIMURIUM, Strain/Indicator: TA100, Metabolic Activation: HAMSTER, LIVER, S-9, PHENOBARBITAL, Method: PREINCUBATION); “active; positive” (Test System: AMES SALMONELLA TYPHIMURIUM, Strain/Indicator: TA100, Metabolic Activation: HAMSTER, LIVER, S-9, Method: PREINCUBATION); “inactive; negative” (Test System: AMES SALMONELLA TYPHIMURIUM, Strain/Indicator: TA100, Metabolic Activation: HUMAN, LIVER, S-9, Method: PREINCUBATION); “active; positive” (Test System: AMES SALMONELLA TYPHIMURIUM, Strain/Indicator: TA100, Metabolic Activation: MONKEY, LIVER, S-9, Method: PREINCUBATION); “active; positive” (Test System: AMES SALMONELLA TYPHIMURIUM, Strain/Indicator: TA100, Metabolic Activation: MOUSE, LIVER, S-9, 3-METHYLCHOLANTHRENE, Method: PREINCUBATION). The mutagenic call runs as follows: (Test System: AMES SALMONELLA TYPHIMURIUM, Strain/Indicator: TA100, Metabolic Activation: MOUSE, LIVER, S-9, PHENOBARBITAL, Method: PREINCUBATION) “active; positive”; (Test System: AMES SALMONELLA TYPHIMURIUM, Strain/Indicator: TA100, Metabolic Activation: MOUSE, LIVER, S-9, Method: PREINCUBATION) “active; positive”; (Test System: AMES SALMONELLA TYPHIMURIUM, Strain/Indicator: TA100, Metabolic Activation: NONE, Method: PREINCUBATION) “inactive; negative”; (Test System: AMES SALMONELLA TYPHIMURIUM, Strain/Indicator: TA100, Metabolic Activation: RABBIT, LIVER, S-9, Method: PREINCUBATION) “active; positive”; (Test System: AMES SALMONELLA TYPHIMURIUM, Strain/Indicator: TA100, Metabolic Activation: RAT, LIVER, CYTOSOL, PCB, Method: PREINCUBATION) “inactive; negative”; (Test System: AMES SALMONELLA TYPHIMURIUM, Strain/Indicator: TA100, Metabolic Activation: RAT, LIVER, MICROSOMES AND CYTOSOL, PCB, Method: PREINCUBATION) “active; positive”. Further, the mutagenic call by setting is: (Test System: AMES SALMONELLA TYPHIMURIUM, Strain/Indicator: TA100, Metabolic Activation: RAT, LIVER, MICROSOMES AND G6PDH, PCB, Method: PREINCUBATION) “active; positive”; (Test System: AMES SALMONELLA TYPHIMURIUM, Strain/Indicator: TA100, Metabolic Activation: RAT, LIVER, MICROSOMES, PCB, Method: PREINCUBATION) “active; positive”; (Test System: AMES SALMONELLA TYPHIMURIUM, Strain/Indicator: TA100, Metabolic Activation: RAT, LIVER, S-9 (HEATED), PCB, Method: PREINCUBATION) “inactive; negative”; (Test System: AMES SALMONELLA TYPHIMURIUM, Strain/Indicator: TA100, Metabolic Activation: RAT, LIVER, S-9, 3-METHYLCHOLANTHRENE, Method: PREINCUBATION) “active; positive”; (Test System: AMES SALMONELLA TYPHIMURIUM, Strain/Indicator: TA100, Metabolic Activation: RAT, LIVER, S-9, PCB, Method: PREINCUBATION) “active; positive”; (Test System: AMES SALMONELLA TYPHIMURIUM, Strain/Indicator: TA100, Metabolic Activation: RAT, LIVER, S-9, PHENOBARBITAL, Method: PREINCUBATION) “active; positive”. In addition, the mutagenic call by setting is: (Test System: AMES SALMONELLA TYPHIMURIUM, Strain/Indicator: TA100, Metabolic Activation: RAT, LIVER, S-9, Method: PREINCUBATION) “active; positive”; (Test System: AMES SALMONELLA TYPHIMURIUM, Strain/Indicator: TA100, Metabolic Activation: RAT, LIVER, S-9 WITHOUT NADP+, PCB, Method: PREINCUBATION) “inactive; negative”; (Test System: AMES SALMONELLA TYPHIMURIUM, Strain/Indicator: TA100, Method: PREINCUBATION) “active; positive”; (Test System: CHINESE HAMSTER V-79, Strain/Indicator: V-79/OUABAIN, Metabolic Activation: HAMSTER, HEPATOCYTES, Method: CELL-MEDIATED) “active; positive”.

Consider `CCOP(=S)(OCC)Oc1nc(Cl)n(C(C)C)n1`, for which the mutagenic call is “active; positive” (Test System: AMES SALMONELLA TYPHIMURIUM, Strain/Indicator: TA98, Metabolic Activation: NONE, Method: PREINCUBATION) and “active; positive” (Test System: AMES SALMONELLA TYPHIMURIUM, Strain/Indicator: TA98, Metabolic Activation: RAT, LIVER, S-9, AROCLOR 1254, Method: PREINCUBATION).

In the case of `C[Si](C)(C)O[Si](C)(C)O[Si](C)(C)C`, the mutagenic call is “inactive; negative” (Test System: AMES SALMONELLA TYPHIMURIUM, Strain/Indicator: TA98, Metabolic Activation: HAMSTER, LIVER, S-9, AROCLOR 1254, Method: STANDARD PLATE); “inactive; negative” under setting [1]; “inactive; negative” under setting [2]; “inactive; negative” (Test System: AMES SALMONELLA TYPHIMURIUM, Strain/Indicator: TA100, Metabolic Activation: HAMSTER, LIVER, S-9, AROCLOR 1254, Method: STANDARD PLATE); “inactive; negative” under setting [3]; “inactive; negative” under setting [4]. The mutagenic call (Test System: AMES SALMONELLA TYPHIMURIUM, Strain/Indicator: TA1535, Metabolic Activation: HAMSTER, LIVER, S-9, AROCLOR 1254, Method: STANDARD PLATE) is “inactive; negative”; the mutagenic call under setting [5] was “inactive; negative”; the mutagenic call under setting [6] was “inactive; negative”; the mutagenic call (Test System: AMES SALMONELLA TYPHIMURIUM, Strain/Indicator: TA1537, Metabolic Activation: HAMSTER, LIVER, S-9, AROCLOR 1254, Method: STANDARD PLATE) is “inactive; negative”; the mutagenic call under setting [7] was “inactive; negative”; the mutagenic call under setting [8] was “inactive; negative”. For the same compound, the mutagenic call is “inactive; negative” (Test System: AMES SALMONELLA TYPHIMURIUM, Strain/Indicator: TA1538, Metabolic Activation: HAMSTER, LIVER, S-9, AROCLOR 1254, Method: STANDARD PLATE); “inactive; negative” under setting [9]; “inactive; negative” under setting [10]; “inactive; negative” (Test System: E. COLI, Strain/Indicator: WP2, Metabolic Activation: NONE, Method: STANDARD PLATE); “inactive; negative” (Test System: E. COLI, Strain/Indicator: WP2, Metabolic Activation: RAT, LIVER, S-9, AROCLOR 1254, Method: STANDARD PLATE); “active; positive. reevaluation of results: positive” under setting [11]. Moreover, under setting [12], the mutagenic call is “inactive; negative. reevaluation of results: negative”.

Turning to `Cc1ccc2c(c1)Cc1cc(C)ccc1-2`, the mutagenic call is “inactive; negative” under setting [2] and “inactive; negative” under setting [4].

On to `O=S1(=O)OC(c2cc(Br)c(O)c(Br)c2)(c2cc(Br)c(O)c(Br)c2)c2ccccc21`, for which the mutagenic call is, setting by setting: under setting [1], “inactive; negative”; under setting [2], “inactive; negative”; under setting [3], “inactive; negative”; under setting [4], “inactive; negative”; under setting [5], “inactive; negative”; under setting [6], “inactive; negative”. The mutagenic call was “inactive; negative” under setting [7]; “inactive; negative” under setting [8]; “inactive; negative” under setting [9]; “inactive; negative” under setting [10]; “inactive; negative” under setting [11]; “inactive; negative” under setting [12].
